Data reported in the NIST ThermoML archive (doi:10.1016/j.tca.2014.04.018).
Several values for one entry are separate records, joined by “and”; a condition that tells them apart may be missing. Equal entries are not always repeated.

Conditions: Liquid, Calculated from knudsen effusion weight loss

CCCc1cc(=O)[nH]c(=S)[nH]1 [6-propyl-2-thiouracil]
Conditions	vapor or sublimation pressure
401.14 K	0.000103 kPa and 0.000101 kPa and 9.7e-05 kPa
403.18 K	0.000124 kPa and 0.000123 kPa and 0.000118 kPa
405.17 K	0.000151 kPa and 0.000144 kPa
407.15 K	0.000196 kPa and 0.000185 kPa and 0.000178 kPa
409.17 K	0.000231 kPa and 0.000224 kPa and 0.000216 kPa
411.16 K	0.000274 kPa and 0.000265 kPa
413.15 K	0.000332 kPa and 0.000325 kPa and 0.000317 kPa
415.17 K	0.00041 kPa and 0.000398 kPa and 0.000382 kPa
417.18 K	0.000484 kPa and 0.000485 kPa and 0.000468 kPa
419.15 K	0.000583 kPa and 0.000558 kPa
421.22 K	0.000714 kPa and 0.000706 kPa and 0.00068 kPa
423.21 K	0.000853 kPa and 0.000839 kPa and 0.00083 kPa
